{"source": "patent EP4813376A1", "about": "“PHARMACEUTICAL COMPOSITION FOR PREVENTION OR TREATMENT OF BREAST CANCER” (Astrion Inc., priority 2023, dated 2025)", "key": {"MDA MB-231 cells": {"tested_on": "MDA MB-231 cells", "assay": "Matrigel invasion assay (Transwell invasion chamber), 20 hours", "assay_type": "cell-based, human", "details": "0.5, 1, 2, 4 µM, FIG. 7", "method": "Human breast cancer cell line MDA MB-231 cells were seeded at a density of 6 x 10^4 cells/well on top of a filter coated with Matrigel (Transwell invasion chamber, Corning), treated with compound AON-MG23 of the present invention (0, 0.5, 1, 2, 4 µM), and cultured in a CO2 in an incubator at 37 °C for 20 hours. After culture, cell fixation and staining were performed using the Diff-Quick stain Kit (Sysmex, Kobe, Japan). The stained cells were imaged under a microscope, and the cells were counted and statistically analyzed using Image J software."}, "MDA-MG231-LM3 cells": {"tested_on": "MDA-MG231-LM3 cells", "assay": "Transwell membrane filter migration assay", "assay_type": "cell-based, human", "details": "cells pre-treated with 0.5 µM, eight hours, FIG. 6", "method": "Breast cancer cell line MDA-MG231-LM3 cells pre-treated with 0.5 µM of compound AON-MG23 of the present invention and cells that were not treated were prepared. […] The membrane filter seeded with the cells was placed into a 24-well plate supplemented with a cell culture medium containing fetal bovine serum and cultured for eight hours in an incubator at 37°C and 5% CO2. Cells that migrated to the bottom surface of the membrane filter were stained and photographed under a microscope, and counted and analyzed using Image J software."}, "SUM149": {"tested_on": "SUM149", "assay": "SRB assay with Bliss synergy scoring, combination with paclitaxel", "assay_type": "cell-based, human", "details": "AON-MG23 combined with paclitaxel, SUM149, five days co-treatment, score > 0 indicates a synergistic effect, FIG. 10A", "method": "(§1) The combination effect of compound AON-MG23 of the present invention was confirmed using Bliss scoring based on the results of the sulforhodamine B assay (SRB assay). Specifically, human breast cancer cell lines SUM149 and HCC1806 were plated in a 96-well cell culture plate at a density of 1 x 10^3 cells/well. On the next day, paclitaxel, the drug to be tested for the combination effect with compound AON-MG23 of the present invention, was diluted to concentrations for testing, and cells were cultured for 24 hours. After carefully removing the cell culture medium, the cells were co-treated with AON-MG23 and paclitaxel at different concentrations and cultured for five days. […] The absorbance of the dissolved solution was measured at […] using a plate reader. The measured absorbance values were compared to the control group, converted into percentages, and saved in an Excel file format. […] The presence of a synergistic effect was evaluated according to the following criteria based on relevant literature (Bliss, C. I. (1939). The toxicity of poisons applied jointly. Annals of Applied Biology, 26(3), 585-615.): a score > 0 indicates a synergistic effect; a score = 0 indicates an independent effect; and a score < 0 indicates an antagonistic effect."}, "HCC1806": {"tested_on": "HCC1806", "assay": "SRB assay with Bliss synergy scoring, combination with paclitaxel", "assay_type": "cell-based, human", "details": "AON-MG23 combined with paclitaxel, HCC1806, five days co-treatment, score > 0 indicates a synergistic effect, FIG. 10B", "method": "as §1"}, "MDA-MB-231 cells [1]": {"tested_on": "MDA-MB-231 cells", "assay": "CCK assay, proliferation of breast cancer cells", "assay_type": "cell-based, human", "details": "MDA-MB-231, 0.1 to 16 µM, 48 hours, absorbance at 450 nm, FIG. 1", "method": "Human breast cancer cell line MDA-MB-231 cells were plated in a 96-well plate at a density of 1 x 10^5 cells/well and cultured for 24 hours. Thereafter, the cells were treated with compound AON-MG23 of the present invention at various concentrations and cultured for 48 hours. The cells were treated with the compound of the present invention at various concentrations of 0 µM, 0.1 µM, 0.25 µM, 0.5 µM, 1 µM, 2 µM, 4 µM, 8 µM, and 16 µM. 10 µL of cell counting kit (CCK) reagent was added and allowed to react for one hour, and then the absorbance was measured at 450 nm."}, "[2]": {"tested_on": "six breast cancer cell lines (SUM149, BCX010, BT20, MDA-MB-231-LM3, CAL51, PyMT-N)", "assay": "colony formation test", "assay_type": "cell-based, human", "details": "0.25 µM, 0.5 µM and 1 µM, 11 to 14 days, all six cell lines, FIGS. 2A to 2C", "method": "To confirm the proliferation inhibitory effect of the compound of the present invention on breast cancer cells, a colony formation test was conducted. Specifically, six breast cancer cell lines (SUM149, BCX010, BT20, MDA-MB-231-LM3, CAL51, PyMT-N) were plated in a 6-well cell culture plate at a density of 250 or 1,000 cells per well. On the next day, the cell culture medium was removed and replaced with a cell culture medium containing compound AON-MG23 of the present invention at concentrations of 0 µM, 0.25 µM, 0.5 µM, and 1 µM. After culturing the cells for 11 to 14 days, the resulting cell colonies were stained and photographed, and then the cell colonies were counted and analyzed using Image J software."}, "[3]": {"tested_on": "four breast cancer cell lines (SUM149, BCX010, BT20, MDA-MB-231-LM3)", "assay": "soft agar assay (tumorigenicity)", "assay_type": "cell-based", "details": "Homo sapiens, 336 h, 100 nM, 500 nM, 1000 nM tested, two weeks, FIGS. 3A and 3B, read-out: concentration from which tumorigenicity was inhibited", "method": "To confirm the tumorigenicity inhibitory effect of the compound of the present invention on breast cancer cells, an […] soft agar assay was performed. Specifically, 0.5% agar or 0.7% agar was added to cell culture media diluted with the compound of the present invention at concentrations of 0 nM, 100 nM, 500 nM, and 1000 nM. 2 ml of 0.5% agar containing the compound of the present invention at various concentrations was added to a 6-well cell culture plate and solidified at room temperature. Thereafter, 1 ml of 1 x 10^4 cells of four breast cancer cell lines (SUM149, BCX010, BT20, MDA-MB-231-LM3) and 1 ml of 0.7% agar containing the compound of the present invention at various concentrations were mixed in a 1:1 ratio to prepare a 0.35% solution, and 2 ml of this solution was placed on top of the solidified 0.5% agar. The mixture was then solidified at room temperature until the upper layer was fixed, and then cells were cultured in an incubator at 37 °C and 5% CO2 for two weeks. The formed cell clones were stained and photographed, and then the cell clones were counted and analyzed using Image J software."}, "MDA-MB-231 cells [4]": {"tested_on": "MDA-MB-231 cells", "assay": "cell migration assay in SPLScar Block plates", "assay_type": "cell-based", "details": "Homo sapiens, 24 hours, FIG. 4, read-out: inhibition of migration of MDA-MB-231 cells compared to the control group", "method": "Human breast cancer cell line MDA-MB-231 cells were seeded in SPLScar Block plates (SPL LIFE SCIENCES) at a density of 7 x 10^4/well and cultured for 24 hours. […], the blocks were removed, and at the same time, compound AON-MG23 of the present invention was applied at various concentrations. Thereafter, cells were cultured in a CO2 incubator at 37 °C for 24 hours. The cells were treated with the compound of the present invention at various concentrations of 0 µM, 0.5 µM, 1 µM, 2 µM, and 4 µM. Photographs were taken before and after each culture, and the migration distance of the cells was measured using Image J software. Based on the results, the inhibition of the cell migration was analyzed."}, "MDA-MB-231": {"tested_on": "MDA-MB-231", "assay": "Matrigel invasion assay (Transwell membrane insert), 24 hours", "assay_type": "cell-based, human", "details": "0.5 µM and 1 µM, reduction dependent on concentration, FIG. 8", "method": "Breast cancer cell line MDA-MB-231 was seeded at a density of 6 x 10^4 cells/well on top of a membrane filter coated with Matrigel(Transwell membrane insert, Corning). Thereafter, the cells were treated with compound AON-MG23 of the present invention at concentrations of 0 µM (DMSO), 0.5 µM, and 1 µM, and cultured in a CO2 incubator at 37 °C for 24 hours. After 24 hours of culture, the cells on the bottom surface of the membrane filter were stained and photographed under a microscope, and counted and analyzed using Image J software."}}}
{"smiles": "COc1cc(N2CCC(N(C)C)CC2)ccc1Nc1ncc(Cl)c(Nc2ccccc2N(C2CC2)S(C)(=O)=O)n1", "note": "[AON-MG23, N-(2-((5-chloro-2-((4-(4-(dimethylamino)piperidin-1-yl)-2-methoxyphenyl)amino)pyrimidin-4-yl)amino)phenyl)-N-cyclopropylmethanesulfonamide]", "values": [{"measurement": "degree of penetration into Matrigel compared to the untreated control group", "setting": "MDA MB-231 cells", "result": "reduced degree of penetration into Matrigel"}, {"measurement": "cell migration compared to the untreated group", "setting": "MDA-MG231-LM3 cells", "result": "inhibited"}, {"measurement": "Bliss synergy scoring", "setting": "SUM149", "result": 18.743, "unit": "points"}, {"measurement": "Bliss synergy scoring", "setting": "HCC1806", "result": 9.249, "unit": "points"}, {"measurement": "proliferation of breast cancer cells", "setting": "MDA-MB-231 cells [1]", "result": "inhibited"}, {"measurement": "cell colony formation", "setting": "[2]", "result": "inhibited"}, {"measurement": "minimal effective concentration", "setting": "[3]", "result": "≥ 0.1", "unit": "µM"}, {"measurement": "inhibition at 0.5 µM", "setting": "MDA-MB-231 cells [4]", "result": 50, "unit": "%"}, {"measurement": "degree of penetration into Matrigel compared to the untreated control group", "setting": "MDA-MB-231", "result": "reduced degree of penetration into Matrigel"}]}
